Source: patent US12544357B2, “Compositions and methods for the treatment of Plasmodium falciparum malaria” (priority 2021, dated 2026)
Where two headings read alike, the source gives them in different places.

Key:
[1] = test system: P. falciparum strain 3D7 parasites; test: parasite killing assay, P. falciparum 3D7, pLDH readout; assay type: cell-based, Plasmodium falciparum; settings: ring stage
Method: P. falciparum strain 3D7 parasites were synchronized to the ring stage and incubated with a dilution series of compound or media control for 48 hours followed by quantification of parasitemia by Plasmodium lactate dehydrogenase assay (pLDH) assay.
(§1) P. falciparum strain 3D7 (Panels A and C) or 3D7 PfGARP KO (Panel B) parasites were synchronized to the ring stage and incubated with a dilution series of compound or media control for 48 hours followed by quantification of parasitemia by pLDH assay.
(§2) A limited structure-activity relationship (SAR) study was then conducted, evaluating 48 analog compounds having the same backbone (black in FIG. 3 inset and FIG. 4), but varying R groups (red) using P. falciparum strain 3D7 and 3D7 PfGARP KO parasites. For the SAR study, 3D7 or 3D7 PfGARP KO parasites were synchronized to the ring stage and incubated with a dilution series of compounds or media control for 48 hours followed by quantification of parasitemia by Plasmodium lactate dehydrogenase assay (pLDH) assay.^30 Each dilution was evaluated in quadruplicate. In all experiments, DMSO concentration was <0.1%.
The small molecule compounds shown in FIG. 4 were tested for their abilities to kill P. falciparum strain 3D7 parasites.

PfGARP-A = PfGARP-A (Plasmodium falciparum, UniProt Q9U0N1); test: surface plasmon resonance (SPR) binding on BiaCore100
From the text: Drugs were immobilized to a CM5 sensorchip and probed with varying concentrations of full length PfGARP on a BiaCore100.
PfGARP-A was immobilized to a sensorchip and probed with varying concentrations of drug on a BiaCore100.

PfGARP (aa 377-560) = target: T1, PfGARP (aa 377-560) (Plasmodium falciparum, UniProt P13816); test: 1H-15N HSQC binding signature
T1 construct: made in house
Method: Spectra were collected on a 600 MHz Bruker spectrometer at 17° C. from samples with PfGARP (aa 377-560) alone (Red), or in complex with ID #9078424 (Blue).
Two-dimension (2D) heteronuclear single quantum coherence (HSQC) spectroscopy was used to characterize the binding of ID #9078424 to PfGARP.
Using a series of recombinant PfGARP fragments, ^1H-^15N HSQC experiments were performed using PfGARP with and without ID #9078424. These experiments confirmed predictions that PfGARP was largely an intrinsically disordered protein.

[2] = test system: P. falciparum 3D7 strain parasites; test: NSG/P. falciparum humanized mouse model, 3D7; assay type: in vivo, Plasmodium falciparum; settings: 100 mg/kg IP every 8 hours for 4 days, Pf3D7
Method: Drugs were evaluated in the NSG/P. falciparum humanized mouse model. Mice were reconstituted with human RBC, infected with P. falciparum 3D7 strain parasites and treated with drug or vehicle control (100 mg/kg dosed IP every 8 hours for 4 days). Parasitemia was monitored by microscopy. Results representative of two independent experiments.
The NSG mouse (NOD scid gamma mouse) is a brand of immunodeficient laboratory mice, which carries the strain non-obese diabetic (NOD). The efficacy of both lead compounds ID #9081579 and ID #9078424 were evaluated in the NSG/P. falciparum humanized mouse model.^32,33,34,35
Briefly, NSG mice (NOD.Cg-Prkdc^scidII2rg^tm1Wjl/SzJ; JAX Cat #005557) were reconstituted with human RBC (huRBC) by daily IP injections with 1 mL of huRBC at 50% hematocrit. On day 12, mice were infected with of 2×10^7 Pf3D7 infected huRBCs via tail vein injection. On day 15, mice were injected IP with ID #9081579 or ID #9078424 at 100 mg/kg final dose (approximately 2 mg per mouse in 5% DMSO/95% PEG400 vehicle) or vehicle alone. Mice were treated with drug or vehicle control every 8 hours for 4 days. This dose and schedule was designed to maintain plasma drug levels above 50 μM, as informed by our single dose PK study in Example 5.

P. falciparum parasites = test: parasite apoptosis assays (JC-1, TUNEL, ApoStat staining); assay type: cell-based, Plasmodium falciparum
Method: (§3) To assess the morphological effects of compound ID #9081579, 3D7 or 3D7 PfGARP KO parasites were synchronized to the ring stage and incubated with 100 μM 9081579 or vehicle control for 48 hours. […] This induction of apoptosis is further supported by caspase activation and mitochondrial depolarization assays induced by compounds ID #9081579 and ID #9078424 (see FIG. 7).

strain INDO = test: parasite killing in chloroquine and quinine resistant strain INDO; assay type: cell-based; settings: Plasmodium falciparum
BeWo cells = test: BeWo crystal violet viability assay; assay type: cell-based, human
Method: BeWo, a human choriocarcinoma cell line, were grown in the presence of increasing concentrations of ID #9081579 or vehicle alone and cell concentration was measured using a crystal violet viability assay performed 48 hours after addition of drug. Points represent the mean of three independent technical replicates. Bars represent SD.
BeWo cells are a human placental cell line that originates from a choriocarcinoma.^31 These cells have been used widely as an in vitro model to study placental uptake of a variety of nutrients including glucose, amino acids, and iron. BeWo choriocarcinoma cells were grown in the presence of increasing concentrations of compound ID #9081579 or vehicle alone. Cell concentration was measured using a crystal violet viability assay performed 48 hours after addition of drug.

3D7 parasites = test: morphological effects on 3D7 parasites; assay type: cell-based, Plasmodium falciparum; settings: 100 μM, 48 hours
Method: (§4) FIG. 6 illustrates the morphological changes that occur when compound ID #9081579 activates parasite apoptosis in P. falciparum strain 3D7 (Panel C), or 3D7 PfGARP KO (Panel B) incubated with 100 μM ID #9081579 (Panels A-B) or vehicle control (Panel A) for 48 hours.
as §3

3D7 PfGARP KO parasites [3] = test: morphological effects on 3D7 PfGARP KO parasites; assay type: cell-based, Plasmodium falciparum; settings: 100 μM, 48 hours
Method: as §4, §3

3D7 PfGARP KO parasites [4] = test: parasite killing assay, 3D7 PfGARP KO, pLDH readout; assay type: cell-based, Plasmodium falciparum; settings: 48 hours
Method: as §1, §2

Human WBC (CD45+) = test: human WBC viability by 7AAD/annexin V flow cytometry; assay type: cell-based
Method: Cells were stained with 7AAD and annexin V and analyzed by flow cytometry to assess viability (7AAD−, annexin V−), necrosis (7AAD+, annexin V−), early apoptosis (7AAD−, annexin V+), and late apoptosis (7AAD+, annexin V+).
Human WBC (CD45+) were incubated in the presence of increasing concentrations of compound ID #9081579 or vehicle alone for 48 hours. Cells were stained with 7AAD and annexin V and analyzed by flow cytometry to assess viability (7AAD−, annexin V−), necrosis (7AAD+, annexin V−), early apoptosis (7AAD−, annexin V+), and late apoptosis (7AAD+, annexin V+).

[5] = test system: P. falciparum 3D7^0087/N9 strain parasites; test: NSG/P. falciparum humanized mouse model, adapted strain; assay type: in vivo, Plasmodium falciparum; settings: 100 mg/kg IP every 8 hours for 4 days, adapted strain 3D70087/N9
Method: ID #9081579 was evaluated in the NSG/P. falciparum humanized mouse model. Mice were reconstituted with human RBC, infected with P. falciparum 3D7^0087/N9 strain parasites and treated with drug or vehicle control (100 mg/kg dosed IP every 8 hours for 4 days). Parasitemia was monitored by microscopy.
Just prior to submission, we have repeated this experiment using ID #9081579 and an adapted parasite strain (3D70087/N9).

[6] = test system: P. falciparum 3D7 strain parasites; settings: artesunate at 50 and 100 mg/kg, literature ref 36; cited from earlier work
[7] = FIG. 8 legend: drugs immobilized to CM5 sensorchip
[8] = PfGARP-A immobilized to sensorchip, probed with drug
[9] = increasing concentrations, 48 hours

PfGARP-A, sequence (Q9U0N1 entry or part of it): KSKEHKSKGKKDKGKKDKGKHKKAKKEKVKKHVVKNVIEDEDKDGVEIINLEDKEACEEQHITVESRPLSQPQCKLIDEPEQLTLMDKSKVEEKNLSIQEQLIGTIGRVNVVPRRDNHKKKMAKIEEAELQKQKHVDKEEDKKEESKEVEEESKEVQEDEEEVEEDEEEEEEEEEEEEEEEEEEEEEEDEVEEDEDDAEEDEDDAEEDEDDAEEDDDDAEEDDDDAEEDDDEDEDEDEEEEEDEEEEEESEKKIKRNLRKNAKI
T1 sequence (P13816 377-560): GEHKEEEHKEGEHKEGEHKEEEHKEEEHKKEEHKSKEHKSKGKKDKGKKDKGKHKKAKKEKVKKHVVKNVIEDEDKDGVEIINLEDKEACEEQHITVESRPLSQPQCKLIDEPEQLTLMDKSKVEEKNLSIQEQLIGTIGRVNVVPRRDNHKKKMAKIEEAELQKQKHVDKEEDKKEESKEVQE

| Compound | IC50 ([1]; 48 hours, read-out: IC50) [µM] | further results |
| --- | --- | --- |
| COc1ccc(N(C(C)C(=O)Nc2ccc3c(c2)OCCO3)S(C)(=O)=O)cc1 (stereo not drawn) [ID #7123771] | > 10000 |  |
| CNC(=O)CN(c1ccc2c(c1)OCCO2)S(C)(=O)=O [ID #7626390] | > 10000 |  |
| CS(=O)(=O)N(CC(=O)N1CCCCCC1)c1ccc2c(c1)OCCO2 [ID #7627706] | 143 |  |
| CS(=O)(=O)N(CC(=O)N1CCCC1)c1ccc2c(c1)OCCO2 [ID #7639273] | > 10000 |  |
| CS(=O)(=O)N(CC(=O)N1CCOCC1)c1ccc2c(c1)OCCO2 [ID #7641147] | 355 |  |
| CC(C(=O)N1CCN(C)CC1)N(c1ccc2c(c1)OCCO2)S(C)(=O)=O (stereo not drawn) [ID #9072406] | 412 |  |
| Cc1ccccc1NC(=O)C(C)N(c1ccc2c(c1)OCCO2)S(C)(=O)=O (stereo not drawn) [ID #9072806] | 85.3 |  |
| CC(C(=O)NC1CCCC1)N(c1ccc2c(c1)OCCO2)S(C)(=O)=O (stereo not drawn) [ID #9074663] | 235 |  |
| CC(C(=O)N1CCOCC1)N(c1ccc2c(c1)OCCO2)S(C)(=O)=O (stereo not drawn) [ID #9075078] | > 10000 |  |
| CC(C(N)=O)N(c1ccc2c(c1)OCCO2)S(C)(=O)=O (stereo not drawn) [ID #9076661] | 132 |  |
| CCOc1ccccc1NC(=O)C(C)N(c1ccc2c(c1)OCCO2)S(C)(=O)=O (stereo not drawn) [ID #9077487] | 49.6 |  |
| CC(C(=O)Nc1ccccc1Cl)N(c1ccc2c(c1)OCCO2)S(C)(=O)=O (stereo not drawn) [ID #9078424] | 4.39 | IC50 ([1]; 48 hours): 4.4 µM; SPR kinetics (PfGARP-A; [7]): fast on, slow off kinetics; SPR kinetics (PfGARP-A; [8]): fast on/off kinetics; binding to PfGARP fragment aa 377-560 (PfGARP (aa 377-560)): specific drug binding; parasitemia [2]: no detectible parasitemia after three days of drug treatment; parasite apoptosis (JC-1, TUNEL, ApoStat staining) (P. falciparum parasites): activate parasite apoptosis |
| CC(C(=O)N1CCCC1)N(c1ccc2c(c1)OCCO2)S(C)(=O)=O (stereo not drawn) [ID #9080993] | > 10000 |  |
| CSc1cccc(NC(=O)C(C)N(c2ccc3c(c2)OCCO3)S(C)(=O)=O)c1 (stereo not drawn) [ID #9081579] | 1.88 | IC50 (strain INDO): 5 to 8 µM; highest non-toxic concentration relative to IC50 for parasites (BeWo cells; BeWo cells): 50 fold; concentration causing loss of viability (no loss up to highest concentration tested) (BeWo cells; BeWo cells, 48 hours, crystal violet): > 200 µM; growth of BeWo cells (BeWo cells; [9]): does not inhibit the growth of BeWo cells; morphological changes (3D7 parasites): dysmorphic, shrunken features with pyknotic nuclei; morphological changes (3D7 PfGARP KO parasites [3]): not observed; IC50 ([1]; Plasmodium falciparum, 3D7, 48 h, read-out: IC50): 1.8 to 4.8 µM; SPR kinetics (PfGARP-A; [7]): fast on, slow off kinetics; SPR kinetics (PfGARP-A; [8]): fast on/off kinetics; parasite killing activity in PfGARP KO parasites (3D7 PfGARP KO parasites [4]): no activity; parasitemia [2]: no detectible parasitemia after three days of drug treatment; parasite apoptosis (JC-1, TUNEL, ApoStat staining) (P. falciparum parasites): activate parasite apoptosis; highest non-toxic concentration relative to IC50 for parasites (Human WBC (CD45+); human WBC (CD45+)): 100 fold; concentration causing loss of viability (no loss up to highest concentration tested) (Human WBC (CD45+); human WBC (CD45+), 48 hours): > 400 µM; cytotoxicity to human white blood cells (Human WBC (CD45+); [9]): not cytotoxic; parasitemia [5]: rapidly eliminated parasitemia |
| CC(C(=O)N1CCCCC1)N(c1ccc2c(c1)OCCO2)S(C)(=O)=O (stereo not drawn) [ID #9082855] | 70.3 |  |
| CC(C(=O)N(C)C)N(c1ccc2c(c1)OCCO2)S(C)(=O)=O (stereo not drawn) [ID #9082916] | 509 |  |
| CC(C(=O)Nc1ccccc1)N(c1ccc2c(c1)OCCO2)S(C)(=O)=O (stereo not drawn) [ID #9083000] | 182 |  |
| Cc1cccc(NC(=O)C(C)N(c2ccc3c(c2)OCCO3)S(C)(=O)=O)c1 (stereo not drawn) [ID #9083036] | 80.8 |  |
| CC(C(=O)NC1CC1)N(c1ccc2c(c1)OCCO2)S(C)(=O)=O (stereo not drawn) [ID #9083268] | 387 |  |
| CC(C(=O)NC1CCCCC1)N(c1ccc2c(c1)OCCO2)S(C)(=O)=O (stereo not drawn) [ID #9083607] | 160 |  |
| CC(C(=O)NC1CCCCCC1)N(c1ccc2c(c1)OCCO2)S(C)(=O)=O (stereo not drawn) [ID #9083885] | 57.2 |  |
| CC1CCN(C(=O)C(C)N(c2ccc3c(c2)OCCO3)S(C)(=O)=O)CC1 (stereo not drawn) [ID #9084012] | 80.2 |  |
| COc1ccccc1NC(=O)C(C)N(c1ccc2c(c1)OCCO2)S(C)(=O)=O (stereo not drawn) [ID #9084682] | > 10000 |  |
| Cc1cccc(C)c1NC(=O)C(C)N(c1ccc2c(c1)OCCO2)S(C)(=O)=O (stereo not drawn) [ID #9084931] | 68.5 |  |
| CC(C(=O)NC1CC2CCC1C2)N(c1ccc2c(c1)OCCO2)S(C)(=O)=O (stereo not drawn) [ID #9085023] | 46.8 |  |
| COc1cccc(NC(=O)C(C)N(c2ccc3c(c2)OCCO3)S(C)(=O)=O)c1 (stereo not drawn) [ID #9085101] | > 10000 |  |
| CN(C)CCNC(=O)CN(c1ccc2c(c1)OCCO2)S(C)(=O)=O [ID #9134158] | 134 |  |
| CS(=O)(=O)N(CC(=O)NCCCN1CCCC1)c1ccc2c(c1)OCCO2 [ID #9146302] | 124 |  |
| C[C@H]1[C@H](OC(=O)CCC(=O)O)O[C@@H]2O[C@@]3(C)CC[C@H]4[C@H](C)CC[C@@H]1[C@@]24OO3 [artesunate] |  | parasite clearance [6]: rapid clearance |
